Reference: ChEMBL document CHEMBL1154222, “Ceratodictyols, 1-glyceryl ethers from the red alga-sponge association Ceratodictyon spongiosum/Haliclona cymaeformis” (J Nat Prod, 2009)
pIC50: −log10 of the molar value.

Test system: HeLa
Test: Cytotoxicity against human HeLa cells
Type: functional, cell-based

Row | Structure (SMILES) | pIC50
1 | CCCCCCCCCCC(=O)/C=C/CCCOC[C@@H](O)CO [CERATODICTYOL A] | 4.17
2 | CCCCCCCCC/C=C/C(=O)CCCCOC[C@@H](O)CO [CERATODICTYOL B] | 4.17
